Results taken from patent US20260116845A1, “LIPIDS AND COMPOSITIONS THEREOF” (Kernal Biologics, Inc., priority 2023, published 2026).

Key:
MC38.K Cell Line = test: Transfection of MC38.K Cell Line with FLuc mRNA LNPs (ONE-Glo EX luciferase signal); type: cell-based; details: 200 ng Fluc mRNA-LNP, 24 hours; Table 4
Procedure, shortened: (§1)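 Firefly luciferase luminescence measured 24 h after transfection with 200 ng mRNA-LNP per well in Opti-MEM. Seeding: 5,000 cells/well for B16F10 and MC38.K, 20,000 for AML12. LNPs were pre-incubated 30 min with mouse serum; mRNA content determined by RiboGreen.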

C57BL/6 mice = test: Multi-dose tolerability screening of NT-beta-Actin mRNA LNPs in MC38.K-inoculated C57BL/6 mice; type: in vivo; details: C57BL/6 mice with MC38.K, 1.0 mg/kg IV twice a week for two weeks
Method: NT-beta-Actin mRNA LNPs with different ionizable lipids were administered IV to C57BL/6 mice, inoculated with MC38.K cells, via the tail vein for a total of four doses (twice a week for two consecutive weeks) at a concentration of 1.0 mg/kg. Bodyweights were monitored and blood was collected pre-dose, 24 hours post first dose, 24 hours post fourth dose, and analyzed for cytokines, blood chemistry, and liver/spleen weights. Compounds 23, 99 and 101 were formulated using a peripheral process method. C57BL/6 mice were inoculated with MC38.K cells. Once tumors had grown, 1.0 mg/kg (Beta-Actin mRNA) of each LNP was intravenously administered twice a week for two weeks. […] N=6 per group for bodyweights, N=3 for blood analysis. Mean+/−SD.

Liver = test: Ex-vivo luminescence signal from liver after IV Fluc mRNA LNPs in CD1 mice (IVIS); details: tail vein 1.0 mg/kg Day 0 and Day 2, imaging 18 hours after second dose, Table 4
MC38.K tumors = test: Intratumor delivery of Firefly Luciferase mRNA-LNPs in MC38.K tumor-bearing mice (IVIS); type: in vivo; details: Albino B6 mice, MC38.K tumors 250 mm^3, 1.0 mg/kg intratumoral, IVIS 18 hours post dose
Method: Intratumor Delivery of Compound 23 versus Benchmark 1. Albino B6 mice were inoculated with MC38.K cancer cells. Once tumors reached 250 mm^3, 1.0 mg/kg of Firefly Luciferase mRNA-LNPs containing either Benchmark 1 or Compound 23 as the ionizable lipid component was dosed intratumorally. Takedown and IVIS imaging were performed 18 hours post dose. N=5 mice per group.

[1] = test system: Macaca fascicularis Cynomolgus monkeys; test: NHP study 2: weekly IV infusion of hEPO mRNA-LNP; type: in vivo; details: weekly IV infusion 0.1 mg/kg hEPO mRNA-LNP
Method: Male cynomolgus monkeys (Biomere, Richmond CA) were 4-6 years old and weighed 4-7 kg at the initiation of dosing. Monkeys were housed in stainless steel cages and provided with Monkey Diet 5038 daily except during times of fasting. Filtered tap water was provided to the animals ad libitum including during fasting times. Temperature of the animal room was kept between 64-84° F., humidity of 30-70%, and with a light/dark cycle of 12 hours except during designated procedures. Pre-dosing treatment with Famotidine (0.5 mg/kg), Diphenhydramine (5 mg/kg), and Dexamethasone (1 mg/kg) was performed prior to dosing of LNPs. Animals received weekly intravenous IV infusions of human erythropoietin encapsulated mRNA lipid nanoparticles (Compound 23, hEPO mRNA-LNP, 0.1 mg/kg). A total of four doses were administered. Prior and after dosing, body weights and temperature were monitored and blood samples were collected pre-dose, 2, 6, 24, 48, and 168 hours. All procedures were conducted according to the approved IACUC guidelines. The results are shown in FIG. 14, FIG. 15, FIG. 16, and FIG. 17.

B16F10 Cell Line = test: Transfection of B16F10 Cell Line with FLuc mRNA LNPs (ONE-Glo EX luciferase signal); type: cell-based; details: 200 ng Fluc mRNA-LNP, 24 hours; Table 4
Procedure, shortened: as §1

AML12 Cell Line = test: Transfection of AML12 Cell Line with FLuc mRNA LNPs (ONE-Glo EX luciferase signal); type: cell-based; details: 200 ng Fluc mRNA-LNP, 24 hours; Table 4
Procedure, shortened: as §1

Balb/c mice = test: Multi-dose tolerability screening of NT-beta-Actin mRNA LNPs in naive Balb/c mice; type: in vivo; details: 1.0 mg/kg IV twice a week for four weeks
Method: Multi-dose Tolerability Screening of Compound 23-LNPs: Compound 23 and Benchmark 1 were formulated using a standard process method and injected (1.0 mg/kg, IV) twice a week for four weeks into naïve Balb/c mice. NT-beta-Actin mRNA LNPs were administered IV to Balb/c mice via the tail vein for a total of eight doses (twice a week for four consecutive weeks) at a concentration of 1.0 mg/kg. Bodyweights were monitored and blood was collected pre-dose, 24 hours post first dose, 24 hours post-fourth dose, and 24 hours post-eighth dose and analyzed for cytokines, blood chemistry, and liver/spleen weights. Data analysis was performed in Graphpad Prism 10. Values are reported as mean+/−standard deviation, unless specified otherwise. […] N=6 per group.

[2] = Formulation of mRNA encapsulated lipid nanoparticles (microfluidic mixing, ribogreen assay); type: physicochemical; details: Table 4
Method: mRNA encapsulated lipid nanoparticles (mRNA LNPs) were formulated using microfluidic mixing with a PNI Ignite instrument. Briefly, lipids (ionizable: structural: helper: PEG) were dissolved in ethanol and mixed with and aqueous solution of mRNA. These mRNA-loaded dispersions were then neutralized via a buffer exchange with a pre-determined buffer overnight. Afterwards, formed LNPs were concentrated with Amicon filter centrifugation, filtered, concentration of mRNA determined through a ribogreen assay, and frozen at −80° C. until use.

Row | SMILES | Total Luciferin Signal (RLU) In Vitro - MC38.K (MC38.K Cell Line) | survival (C57BL/6 mice) | Total Liver Tissue Luciferin Signal (Photons/s) Ex-vivo - CD1 (Liver) | intratumor delivery performance (MC38.K tumors) | tolerability (body weight, temperature, liver blood chemistry) ([1]; 4 doses) | generation of red blood cells (hematocrit, absolute reticulocyte counts) ([1]; four doses) | hEPO protein expression over repeated doses ([1]; four doses) | clearance of the lipid from blood / serum ([1]; repeated doses) | Total Luciferin Signal (RLU) In Vitro - B16F10 (B16F10 Cell Line) | Total Luciferin Signal (RLU) In Vitro - AML12 (AML12 Cell Line) | bodyweights or survival rate (Balb/c mice; among Compound 23, Benchmark 1 and delivery buffer) | tolerability (Balb/c mice; versus delivery buffer) | mRNA encapsulation in LNP [2]
1 | CCCCCCCCCOC(=O)CCCCCCCN(CCO)CCCCCCCC(=O)OC(CCCCCCCC)CCCCCCCCF (stereo not shown) [Compound 23] | 2.00E+06 RLU | all mice survived | 5.15E+09 Photons/s | comparable delivery performance as that of Benchmark 1 | reasonable tolerability | consistent generation of red blood cells over four repeated doses | consistent protein expression over repeated doses | cleared from the blood without any observation of accumulation over repeated doses | 9.60E+05 RLU | 4.66E+05 RLU | Comparable bodyweights or survival rate | comparable tolerability | 
2 | CCCCCCCCCOC(=O)CCCCCCCN(CCF)CCCCCCCC(=O)OC(CCCCCCCC)CCCCCCCC [Compound 43] |  |  |  |  |  |  |  |  |  |  |  |  | Inherent Lipid Properties Result in No mRNA Encapsulation
